From patent US20200115357A1, “LIVER X RECEPTORS (LXR) MODULATORS” (Phenex-FXR GmbH, priority 2017, published 2020)

Experiments:
[1] = target: T1, GST-LXRβ ligand-binding domain (Homo sapiens, UniProt P55055, DUP175-175); assay: TR-FRETβ activity assay (LXRβ-LBD / NCoA3 coactivator peptide, prestimulated with 24(S)-25-epoxycholesterol); assay type: biochemical; parameters: key to behavior in FRET assay: ag=agonist; ia=inverse agonist; conditions: for EC50: 1 μM 24(S)-25-epoxycholesterol as prestimulating agonist, read-out: FRETβ activity range (EC50); for behavior in FRET assay: agonist or inverse agonist
T1 construct: amino acids 156-461; NP009052; made in house; host or cells: E. coli
T1 sequence (P55055 with tags, fused parts or gaps DUP175-175): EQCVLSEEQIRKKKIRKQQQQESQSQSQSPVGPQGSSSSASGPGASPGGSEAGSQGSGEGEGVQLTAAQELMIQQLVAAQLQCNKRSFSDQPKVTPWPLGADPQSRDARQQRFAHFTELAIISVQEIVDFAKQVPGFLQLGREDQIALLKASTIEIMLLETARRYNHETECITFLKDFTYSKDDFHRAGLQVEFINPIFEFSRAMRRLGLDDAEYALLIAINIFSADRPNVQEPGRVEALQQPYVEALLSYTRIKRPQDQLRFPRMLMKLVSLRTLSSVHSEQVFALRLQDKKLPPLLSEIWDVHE
Description: The tested compounds were usually dissolved, tested and stored as 20 mM stock solutions in DMSO. […] Sulfonyl acetic acid derivatives are shelf stable as solid at rt for long time as reported by Griesbrecht et al. (Synlett 2010:374) or Faucher et al. (J. Med. Chem. 2004; 47:18). TR-FRETβ Activity Assay Recombinant GST-LXRβ ligand-binding domain (LBD; amino acids 156-461; NP009052; SEQ ID NO:2) was expressed in E. coli and purified via gluthatione-sepharose affinity chromatography. N-terminally biotinylated NCoA3 coactivator peptide (SEQ ID NO:1) was chemically synthesized (Eurogentec). […] Finally, a detection mix was added containing anti GST-Tb cryptate (CisBio; 610SAXLB) and Streptavidin-XL665 (CisBio; 610SAXLB) as fluorescent donor and acceptor, respectively, as well as the coactivator peptide and LXRβ-LBD protein (SEQ ID NO:2). The reaction was mixed thoroughly, equilibrated for 1 h at 4° C. and vicinity of LXRβ and coactivator peptide was detected by measurement of fluorescence in a VictorX4 multiplate reader (PerkinElmer Life Science) using 340 nm as excitation and 615 and 665 nm as emission wavelengths. Assays were performed in triplicates. Final Assay Concentrations of Components: 240 mM KCl, 1 μg/μL BSA, 0.002% Triton-X-100, […] anti GST-Tb cryptate, 2.5 ng/μL Streptavidin-XL665, coactivator peptide (400 nM), LXRβ protein ([…], i.e. 76 nM)

LXRα full length (FL) = target: T2, LXRα full length (FL) (Homo sapiens, UniProt Q13133); assay: LXR Gal4 reporter transient transfection assay (M2H), Gal4α FL; assay type: cell-based; conditions: HEK293 cells; read-out: M2H Gal4α FL activity range (EC50)
T2 construct: the full length (FL) proteins of LXRα (amino acids 1-447); NP005684; expressed in transfected cells; host or cells: HEK293
T2 sequence (Q13133 1-447): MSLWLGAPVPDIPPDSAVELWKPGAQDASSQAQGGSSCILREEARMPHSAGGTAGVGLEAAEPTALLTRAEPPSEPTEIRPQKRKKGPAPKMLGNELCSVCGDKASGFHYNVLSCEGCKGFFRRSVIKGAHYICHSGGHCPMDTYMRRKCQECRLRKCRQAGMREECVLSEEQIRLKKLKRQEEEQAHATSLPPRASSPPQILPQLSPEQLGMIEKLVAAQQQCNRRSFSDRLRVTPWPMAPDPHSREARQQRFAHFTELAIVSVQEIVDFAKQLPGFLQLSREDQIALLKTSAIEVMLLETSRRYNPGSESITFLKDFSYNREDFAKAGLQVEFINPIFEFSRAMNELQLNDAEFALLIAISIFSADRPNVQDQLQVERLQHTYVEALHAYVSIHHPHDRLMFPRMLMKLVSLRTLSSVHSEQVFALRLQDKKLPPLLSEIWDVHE
Description: (§1) The tested compounds were usually dissolved, tested and stored as 20 mM stock solutions in DMSO. Since sulfonyl acetic acid derivatives tend to decarboxylate under these conditions, these stock solutions were prepared, tested and stored as 20 mM DMSO stock solutions containing 100 mM trifluoroacetic acid (5 equivalents). Sulfonyl acetic acid derivatives are shelf stable as solid at rt for long time as reported by Griesbrecht et al. (Synlett 2010:374) or Faucher et al. (J. Med. Chem. 2004; 47:18).
(§2) LXR Gal4 Reporter Transient Transfection Assays
(§3) LXRα and LXRβ activity status was determined via detection of interaction with coactivator and corepressor proteins in mammalian two-hybrid experiments (M2H). For this, via transient transfection the full length (FL) proteins of LXRα (amino acids 1-447; NP005684; SEQ ID NO:7) or LXRβ-(amino acids 1-461; NP009052; SEQ ID NO:8) or the ligand-binding domains (LBD) of LXRα (amino acids 155-447 SEQ ID NO:3) or LXRβ (amino acids 156-461; SEQ ID NO:4) were expressed from pCMV-AD (Stratagene) as fusions to the transcriptional activation domain of NFkB. As cofactors, domains of either the steroid receptor coactivator 1 (SRC1; amino acids 552-887; SEQ ID NO:5) or of the corepressor NCoR (amino acids 1903-2312 SEQ ID NO:6) were expressed as fusions to the DNA binding domain of the yeast transcription factor GAL4 (from pCMV-BD; Stratagene). Interaction was monitored via activation of a coexpressed Firefly Luciferase Reporter gene under control of a promoter containing repetitive GAL4 response elements (vector pFRLuc; Stratagene). Transfection efficiency was controlled via cotransfection of constitutively active pRL-CMV Renilla reniformis luciferase reporter (Promega). HEK293 cells were grown in minimum essential medium (MEM) with 2 mM L-glutamine and Earle's balanced salt solution supplemented with 8.3% fetal bovine serum, 0.1 mM non-essential amino acids, 1 mM sodium pyruvate, at 37° C. in 5% CO2. 3.5×10^4 cells/well were plated in 96-well cell culture plates in growth medium supplemented with 8.3% fetal bovine serum for 16-20 h to ˜90% confluency. For transfection, medium was taken off and LXR and cofactor expressing plasmids as well as the reporter plasmids are added in 30 μL OPTIMEM/well including polyethylene-imine (PEI) as vehicle. Typical amounts of plasmids transfected/well: pCMV-AD-LXR (5 ng), pCMV-BD-cofactor (5 ng), pFR-Luc (100 ng), pRL-CMV (0.5 ng). Compound stocks were prepared in DMSO, prediluted in MEM to a total volume of 120 μL, and added 4 h after addition of the transfection mixture (final vehicle concentration not exceeding 0.2%). Cells were incubated for additional 16 h, lysed for 10 min in 1× Passive Lysis Buffer (Promega) and Firefly and Renilla luciferase activities were measured sequentially in the same cell extract using buffers containing D-luciferine and coelenterazine, respectively. Measurements of luminescence were done in a BMG-Iuminometer.

LXRβ full length (FL) = target: T3, LXRβ full length (FL) (Homo sapiens, UniProt P55055, DUP175-175); assay: LXR Gal4 reporter transient transfection assay (M2H), Gal4β FL; assay type: cell-based; conditions: HEK293 cells; read-out: M2H Gal4β FL activity range (EC50)
T3 construct: the full length (FL) proteins of LXRα (amino acids 1-447); NP005684; NP009052; expressed in transfected cells; host or cells: HEK293
T3 sequence (P55055 with tags, fused parts or gaps DUP175-175): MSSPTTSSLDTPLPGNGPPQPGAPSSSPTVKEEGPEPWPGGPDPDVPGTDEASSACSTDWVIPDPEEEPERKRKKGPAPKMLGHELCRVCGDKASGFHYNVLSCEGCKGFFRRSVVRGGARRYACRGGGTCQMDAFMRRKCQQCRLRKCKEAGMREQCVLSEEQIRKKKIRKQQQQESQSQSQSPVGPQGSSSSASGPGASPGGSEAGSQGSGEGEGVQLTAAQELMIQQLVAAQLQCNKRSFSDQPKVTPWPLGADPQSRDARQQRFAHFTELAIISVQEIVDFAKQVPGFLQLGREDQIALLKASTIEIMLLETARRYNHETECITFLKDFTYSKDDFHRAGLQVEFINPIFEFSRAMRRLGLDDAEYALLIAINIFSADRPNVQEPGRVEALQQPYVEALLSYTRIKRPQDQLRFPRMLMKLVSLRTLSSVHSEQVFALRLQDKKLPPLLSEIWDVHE
Description: as §1, §2, §3

SMILES | EC50 [1] | behavior in FRET assay [1] | EC50 (LXRα full length (FL)) | EC50 (LXRβ full length (FL))
Cc1cc(C)c(S(=O)(=O)N(Cc2ccc(-c3cccc(S(=O)(=O)CC(=O)O)c3)cc2)Cc2ccc(C)o2)c(C)c1 [5/5] | > 10000 nM | ia | 1000 to 10000 nM | 100 to 1000 nM
Cc1cc(C)c(S(=O)(=O)N(Cc2ccc(C(F)(F)F)o2)Cc2sc(-c3cccc(C(C)(C)C(=O)O)c3)cc2Cl)c(C)c1 [10/6] | 1000 to 10000 nM | ag | 100 to 1000 nM | < 100 nM
Cc1cc(C)c(S(=O)(=O)N(Cc2ccc(-c3cccc(C(C)(C)C(=O)O)c3)cc2)c2ccc(C(F)(F)F)o2)c(C)c1 [10/7] | 100 to 1000 nM | ag | 100 to 1000 nM | < 100 nM
Cc1cc(C)c(S(=O)(=O)N(Cc2ccc(-c3cccc(S(=O)(=O)CC(=O)O)c3)cc2)Cc2ccc(C(F)F)o2)c(C)c1 [10/13] | 1000 to 10000 nM | ia | 1000 to 10000 nM | 100 to 1000 nM
Cc1ccc2ccccc2c1S(=O)(=O)N(Cc1ccc(C(F)(F)F)o1)C1COc2cc(-c3cccc(C(C)(C)C(=O)O)c3)ccc21 (stereo not shown) [10/14] | 100 to 1000 nM | ia | < 100 nM | < 100 nM
Cc1ccc2ccccc2c1S(=O)(=O)N(Cc1ccc(-c2cccc(C(C)(C)C(=O)O)c2)cc1)Cc1cc2ccccc2o1 [10/17] | 1000 to 10000 nM | ia | 100 to 1000 nM | < 100 nM
COc1ccc2cccnc2c1S(=O)(=O)N(Cc1ccc(-c2cccc(C(C)(C)C(=O)O)c2)cc1)Cc1ccc(C(F)(F)F)o1 [10/19] | 100 to 1000 nM | ag | < 100 nM | < 100 nM
Cc1nn2cccnc2c1S(=O)(=O)N(Cc1ccc(-c2cccc(C(C)(C)C(=O)O)c2)cc1)Cc1ccc(C(F)(F)F)o1 [10/20] | 100 to 1000 nM | ag | 100 to 1000 nM | < 100 nM
COc1cccc(CN(Cc2ccc(-c3cccc(S(=O)(=O)CC(=O)O)c3)cc2)S(=O)(=O)c2c(C)cc(C)cc2C)c1 [11/3] | > 10000 nM | ia | 1000 to 10000 nM | 1000 to 10000 nM

The remaining lines, values ahead:

EC50 [1] | behavior in FRET assay [1] | EC50 (LXRα full length (FL)) | EC50 (LXRβ full length (FL)) | SMILES
1000 to 10000 nM | ia | 1000 to 10000 nM | 100 to 1000 nM | Cc1cc(F)cc(C)c1S(=O)(=O)N(Cc1ccc(-c2cccc(S(=O)(=O)CC(=O)O)c2)cc1)Cc1ccc(C(F)(F)F)o1 [10/2]
1000 to 10000 nM | ag | 1000 to 10000 nM | 100 to 1000 nM | O=C(O)CS(=O)(=O)c1cccc(-c2ccc(CN(Cc3ccc(C(F)(F)F)o3)S(=O)(=O)c3c(Cl)cccc3C(F)(F)F)cc2)c1 [10/3]
1000 to 10000 nM | ag | 1000 to 10000 nM | 1000 to 10000 nM | COc1cc(C)cc(C)c1S(=O)(=O)N(Cc1ccc(-c2cccc(S(=O)(=O)CC(=O)O)c2)cc1)Cc1ccc(C(F)(F)F)o1 [10/8]
1000 to 10000 nM | ia | 1000 to 10000 nM | 100 to 1000 nM | O=C(O)CS(=O)(=O)c1cccc(-c2ccc(CN(Cc3ccc(C(F)(F)F)o3)S(=O)(=O)c3cccc4ccccc34)cc2)c1 [10/9]
1000 to 10000 nM | ia | 100 to 1000 nM | 100 to 1000 nM | COc1ccc(S(=O)(=O)N(Cc2ccc(-c3cccc(S(=O)(=O)CC(=O)O)c3)cc2)Cc2ccc(C(F)(F)F)o2)c2c1CCCC2 [10/10]
1000 to 10000 nM | ag | 1000 to 10000 nM | 100 to 1000 nM | Cc1ccc2cccnc2c1S(=O)(=O)N(Cc1ccc(-c2cccc(S(=O)(=O)CC(=O)O)c2)cc1)Cc1ccc(C(F)(F)F)o1 [10/11]
1000 to 10000 nM | ia | 1000 to 10000 nM | 100 to 1000 nM | Cc1ccc(S(=O)(=O)N(Cc2ccc(-c3cccc(S(=O)(=O)CC(=O)O)c3)cc2)Cc2ccc(C(F)(F)F)o2)c(C)c1 [10/12]
< 100 nM | ia | < 100 nM | < 100 nM | Cc1ccc2ncccc2c1S(=O)(=O)N(Cc1ccc(-c2cccc(C(C)(C)C(=O)O)c2)cc1)Cc1ccc(C(F)(F)F)o1 [10/15]
> 10000 nM | ia | 1000 to 10000 nM | 100 to 1000 nM | Cc1ccc2ccccc2c1S(=O)(=O)N(Cc1ccc(-c2cccc(S(=O)(=O)CC(=O)O)c2)cc1)Cc1cc(C(F)(F)F)co1 [10/16]
< 100 nM | ia | < 100 nM | < 100 nM | Cc1sc2ccccc2c1S(=O)(=O)N(Cc1ccc(-c2cccc(C(C)(C)C(=O)O)c2)cc1)Cc1ccc(C(F)(F)F)o1 [10/18]
